Test results from patent US5922717A, “Piperazine derivatives, medicaments comprising these compounds, their use and processes for their preparation” (priority 1994, dated 1999).
Structures can show the parent of a compound that is named as a salt.

Key:
human platelets = assay: Inhibition of the binding of 3H-BIBU 52 to human platelets (fibrinogen binding test); details: 3H-BIBU 52 5 nM, human platelets in plasma, room temperature, 20 minutes
Method: 1. Inhibition of the Binding of ^3 H-BIBU 52 to Human Platelets:
A suspension of human platelets in plasma is incubated with ^3 H-BIBU 52 [=(3S,5S)-5-[(4'-amidino-4-biphenylyl)-oxymethyl]-3-[(carboxyl)methyl]-2-pyrrolidinone[3-^3 H-4-biphenylyl]], which replaces the ligand ^125 I-fibrinogen known from the literature, (see DE-A-4,214-245) and varius concentrations of the substance to be tested. The free and bound ligand are separated by centrigation and determined quantitatively by scintillation counting. The inhibition of ^3 H-BIBU 52 binding by the test substance is determined from the measurement values.
For this, donor blood is withdrawn form an anticubital vein and anticoagulated with trisodium citrate (final concentration 13 mM). The blood is centriged at 170×g for 10 minutes and the supernatant platelet-rich plasma (PRP) is removed. The residual blood is centriged off under severe conditions once more to isolate the plasma. The PRP is diluted 1:10 with autologous plasma. 750 μl are incubated with 50 μl of physiological saline solution, 100 μl of test substance solution, 50 μl of 14C-sucrose (3,700 Bq) and 50 μl of ^3 H-BIBU 52 (final centration: 5 nM) at room temperature for 20 minutes. To measure the non-specific binding, 100 μl of BIBU 52 (final concentration: […]) are employed instead of the test substance. The samples are centrifuged at 10,000×g for 20 seconds and the supernatant is removed. 100 μl of this are measured for determination of the free ligand. The pellet is dissolved in 500 μl of 0.2N NaOH, […] of scintillator and 25 μl of 5N HCl are added to 450 μl and the sample is measured. The residual plasma which still remains in the pellet is determined from the ^14 C content and the bound ligand is determined from the ^3 H measurement. After subtraction of the non-specific binding, the pellet activity is plotted against the concentration f the test substance and the concentration for 50% inhibition of binding is determined.

Platelet aggregation = assay: Inhibition of collagen-induced platelet aggregation (method of Born and Cross) in platelet-rich plasma; assay type: cell-based, human (healthy test persons); details: 10 minutes at 37° C., 50% change in optical density
Method: 2. Antithrombotic Action: Method Platelet aggregation is measured in platelet-rich plasma of healthy test persons by the method of Born and Cross (J. Physiol. 170, 397 (1964)). To inhibit coagulation, 3.14% sodium citrate is added to the blood in a volume ratio of 1:10. Collagen-induced aggregation The course of the decrease in the optical density of the platelet suspension after addition of the substance which induces aggregation is measured and recorded photometrically. The rate of aggregation is concluded from the angle of inclination of the density curve. The point on the curve at which the highest light transmission exists is used to calculate the "optical density". The amount of collagen is as low as possible, but is enough to result in a reaction curve which proceeds irreversibly. Commercially available collagen from Hormonchemie, Munich is used. Before addition of the collagen, the plasma is incubated with the substance for in each case 10 minutes at 37° C. An EC50 which is based on a 50% change in "optical density" in the sense of inhibition of aggregation is determined graphically from the measurement figures obtained.

[1] = design: species or system mice; details: mouse, in vivo, iv, 200 mg/kg

Molecule | IC50 (human platelets) [nM] | EC50 (Platelet aggregation; Homo sapiens, 10 min) [nM] | toxic side effects [1] | EC50 (Platelet aggregation) [nM]
CC(C)OC(=O)COc1ccc(NC(=O)N2CCN(C3CCNCC3)CC2)cc1 [4(6), Isopropyl [4-[[4-(4-piperidinyl)-piperazin-1-yl]carbonylamino]-phenoxy]acetate dihydrochloride] | 13000 | 280 | – | –
CCOC(=O)COc1ccc(NC(=O)N2CCN(C3CCNCC3)CC2)cc1 [4(13), Ethyl [4-[[4-(4-piperidinyl)-piperazin-1-yl]carbonylamino]-phenoxy]acetate dihydrochloride] | 310 | 130 | – | –
O=C(O)CC[C@H]1CC[C@H](NC(=O)N2CCN(C3CCNCC3)CC2)CC1 [Example 1(1), [3-[4-trans-[4-(4-Piperidinyl)-piperazin-1-yl]carbonylamino]cyclohexyl]propionic acid dihydrochloride] | 76 | 95 | – | –
O=C(O)CCCC1CCN(C(=O)N2CCN(C3CCNCC3)CC2)CC1 [Example 1(13), N-[[4-(4-Piperidinyl)-piperazin-1-yl]-carbonyl]-4-(4-piperidinyl)-butyric acid dihydrochloride] | 270 | 320 | – | –
O=C(O)COc1ccc(C(=O)CN2CCN(C3CCNCC3)CC2)cc1 [Example 1(19), [4-[[4-(4-Piperidinyl)-piperazin-1-yl]acetyl]phenoxyl-acetic acid trihydrochloride] | 200 | 390 | – | –
O=C(O)COc1ccc(NC(=O)N2CCN(C3CCNCC3)CC2)cc1 [Example 1(23), [4-[[4-(4-Piperidinyl)-piperazin-1-yl]carbonylaminolphenoxyl-acetic acid dihydrochloride] | 67 | 98 | no toxic side effects were observed | –
O=C(O)CCOC1CCN(C(=O)N2CCN(C3CCNCC3)CC2)CC1 [Example 1(30), N-[[4-(4-Piperidinyl)-piperazin-1-yl]carbonyl]-3-(piperidin-4-yloxy)-propionic acid dihydrochloride] | 210 | 640 | – | –
O=C(CCN1CCN(C2CCNCC2)CC1)N[C@H]1CC[C@H](C(=O)O)CC1 [Example 1, [4-trans-[3-[4-(4-Piperidinyl)-piperazin-1-yl]propionyl]-amino]cyclohexanecarboxylic acid dihydrochloride] | 510 | 240 | – | –
COC(=O)COc1ccc(C(=O)CN2CCN(C3CCNCC3)CC2)cc1 [Example 2(11), Methyl [4-[[4-(4-piperidinyl)-piperazin-1-yl]acetyl]phenoxyl-acetatetrihydrochloride] | 33000 | 420 | – | –
CCOC(=O)CCOC1CCN(C(=O)N2CCN(C3CCNCC3)CC2)CC1 [Example 2(15), Ethyl N-[[4-(4-piperidinyl)-piperazin-1-yl]-carbonyl]-3-(piperidin-4-yloxy)-propionate dihydrochloride] | 38000 | > 10000 | – | –
COC(=O)COc1ccc(NC(=O)N2CCN(C3CCNCC3)CC2)cc1 [Example 3(7), Methyl [4-[[4-(4-piperidinyl)-piperazin-1-yl]carbonylamino]phenoxy]acetate dihydrochloride] | 270 | 110 | – | –
CC(C)(C)OC(=O)COc1ccc(NC(=O)N2CCN(C3CCNCC3)CC2)cc1 [Example 3(11), tert-Butyl [4-[[4-(4-piperidinyl)-piperazin-1-yl]carbonylamino]-phenoxy]acetate dihydrochloride] | 630 | 980 | – | –
CC(C)COC(=O)COc1ccc(NC(=O)N2CCN(C3CCNCC3)CC2)cc1 [Example 4(7), Isobutyl [4-[[4-(4-piperidinyl)-piperazin-1-yl]carbonylamino]-phenoxy]acetate dihydrochloride] | 18000 | 100 | – | –
CC(C)(C)COC(=O)COc1ccc(NC(=O)N2CCN(C3CCNCC3)CC2)cc1 [Example 4(8), Neopentyl [4-[[4-(4-piperidinyl)-piperazin-1-yl]carbonylamino]-phenoxy]acetate dihydrochloride] | 170 | 120 | – | –
O=C(COc1ccc(NC(=O)N2CCN(C3CCNCC3)CC2)cc1)OC1CCCC1 [Example 4(9), Cyclopentyl [4-[[4-(4-piperidinyl)-piperazin-1-yl]carbonylamino]-phenoxy]acetate dihydrochloride] | 4700 | 160 | – | –
O=C(COc1ccc(NC(=O)N2CCN(C3CCNCC3)CC2)cc1)OC1CCCCCC1 [Example 4(10), Cycloheptyl [4-[[4-(4-piperidinyl)-piperazin-1-yl]carbonylamino]-phenoxy]acetate dihydrochloride] | 590 | 91 | – | –
CCCCOC(=O)COc1ccc(NC(=O)N2CCN(C3CCNCC3)CC2)cc1 [Example 4(11), Butyl [4-[[4-(4-piperidinyl)-piperazin-1-yl]carbonylamino]-phenoxy]acetate dihydrochloride] | 19000 | 110 | – | –
O=C(COc1ccc(NC(=O)N2CCN(C3CCNCC3)CC2)cc1)OC1CCCCC1 [Example 4(12), Cyclohexyl [4-[[4-(4-piperidinyl)-piperazin-1-yl]carbonylamino]-phenoxy]acetate dihydrochloride] | – | 290 | – | –
O=C(CC[C@H]1CC[C@H](NC(=O)N2CCN(C3CCNCC3)CC2)CC1)OC1CCCCC1 [Example 4, Cyclohexyl 3-[4-trans-[[4-(4-piperidinyl)-piperazin-1-yl]carbonylamino]-cyclohexylpropionatedihydrochloride] | 270 | 360 | – | –
O=C(O)CN1CCC(OCC(=O)N2CCN(C3CCNCC3)CC2)CC1 [Example 22(8), [4-[[[4-(piperidin-4-yl)-piperazin-1-yl]-carbonyl]-methyloxy]-piperidin-1-yl]-acetic acid] | 27 | 100 | – | –
O=C(O)CN1CCC(CCC(=O)N2CCN(C3CCNCC3)CC2)CC1 [Example 24(1), [4-[2-[[4-(Piperidin-4-yl)-piperazin-1-yl]-carbonyl]-ethyl]-piperidin-1-yl]-acetic acid trihydrochloride] | 12 | 94 | – | –
N-[4-[[4-(4-Piperidinyl)-piperazin-1-yl]carbonyl]piperi-dinyl]-β-alanine trihydrochloride [Example 1(5)] | 78 | – | – | 250
